Laboratory results: PubChem BioAssay (NCI)
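1) Cells in 96-well plates. 2) Compound, 48 h, 5 concentrations. 3) Linear interpolation between surrounding doses. 4) Unreached endpoint = highest concentration. The concentration for 50% growth inhibition is given as GI50. TGI: concentration producing complete growth inhibition.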

Columns and labels:
Assay in all cases: growth of human tumour cells (NCI), 48 h
SNB-19 CNS = system: SNB-19 CNS
TK-10 renal = system: TK-10 renal
SR leukemia = system: SR leukemia
786-0 renal = system: 786-0 renal
U251 CNS = system: U251 CNS
RXF 393 renal = system: RXF 393 renal
MDA-MB-231 breast = system: MDA-MB-231 breast
NCI-H226 lung = system: NCI-H226 lung
SK-OV-3 ovarian = system: SK-OV-3 ovarian
SN12C renal = system: SN12C renal
BT-549 breast = system: BT-549 breast
HS 578T breast = system: HS 578T breast
K-562 leukemia = system: K-562 leukemia
ACHN renal = system: ACHN renal
M14 melanoma = system: M14 melanoma
HT29 colon = system: HT29 colon
SK-MEL-2 melanoma = system: SK-MEL-2 melanoma
DU-145 prostate = system: DU-145 prostate
A549 NSCLC = system: A549 NSCLC
SF-295 CNS = system: SF-295 CNS
NCI-H23 lung = system: NCI-H23 lung
MOLT-4 leukemia = system: MOLT-4 leukemia
SK-MEL-5 melanoma = system: SK-MEL-5 melanoma
A498 renal = system: A498 renal
SNB-75 CNS = system: SNB-75 CNS
KM12 colon = system: KM12 colon
UACC-62 melanoma = system: UACC-62 melanoma
CAKI-1 renal = system: CAKI-1 renal
LOX IMVI melanoma = system: LOX IMVI melanoma
IGROV1 ovarian = system: IGROV1 ovarian
HCC-2998 colon = system: HCC-2998 colon
HCT-15 colon = system: HCT-15 colon
RPMI-8226 leukemia = system: RPMI-8226 leukemia
EKVX NSCLC = system: EKVX NSCLC
MALME-3M melanoma = system: MALME-3M melanoma
PC-3 prostate = system: PC-3 prostate
NCI-H460 lung = system: NCI-H460 lung
COLO 205 colon = system: COLO 205 colon
UO-31 renal = system: UO-31 renal
SW-620 colon = system: SW-620 colon
HOP-62 NSCLC = system: HOP-62 NSCLC
HL-60(TB) leukemia = system: HL-60(TB) leukemia
HOP-92 NSCLC = system: HOP-92 NSCLC
SF-539 CNS = system: SF-539 CNS
CCRF-CEM leukemia = system: CCRF-CEM leukemia
SK-MEL-28 melanoma = system: SK-MEL-28 melanoma
T-47D breast = system: T-47D breast
SF-268 CNS = system: SF-268 CNS
MDA-MB-435 = system: MDA-MB-435
MCF7 breast = system: MCF7 breast
HCT-116 colon = system: HCT-116 colon
NCI/ADR-RES ovarian = system: NCI/ADR-RES ovarian
OVCAR-4 ovarian = system: OVCAR-4 ovarian
OVCAR-8 ovarian = system: OVCAR-8 ovarian
UACC-257 melanoma = system: UACC-257 melanoma
OVCAR-3 ovarian = system: OVCAR-3 ovarian
OVCAR-5 ovarian = system: OVCAR-5 ovarian

With `N#C/C(=N\Nc1ccc(F)cc1)C(=O)Nc1cc(-c2ccccc2)nn1-c1ccccc1` the GI50 (SNB-19 CNS) was 2.99 µM, the TGI (SNB-19 CNS) was 13.4 µM and the GI50 (TK-10 renal) was 3.43 µM. For the same molecule, the TGI (TK-10 renal) was 16.2 µM, the GI50 (SR leukemia) was 2.27 µM and the TGI (SR leukemia) was 8.74 µM. It also gave a GI50 (786-0 renal) of 3.41 µM, a TGI (786-0 renal) of 14 µM and a GI50 (U251 CNS) of 3.04 µM. It also gave a TGI (U251 CNS) of 13.2 µM, a GI50 (RXF 393 renal) of 2.24 µM and a TGI (RXF 393 renal) of 7 µM. It also gave a GI50 (MDA-MB-231 breast) of 1.99 µM, a TGI (MDA-MB-231 breast) of 5.6 µM and a GI50 (NCI-H226 lung) of 2.84 µM. The TGI (NCI-H226 lung) was 13.7 µM, the GI50 (SK-OV-3 ovarian) was 1.61 µM and the TGI (SK-OV-3 ovarian) was 6.39 µM. It also gave a GI50 (SN12C renal) of 1.83 µM, a TGI (SN12C renal) of 8.45 µM and a GI50 (BT-549 breast) of 2.11 µM. The TGI (BT-549 breast) was 11.2 µM, the GI50 (HS 578T breast) was 3.39 µM and the TGI (HS 578T breast) was 53.8 µM. The GI50 (K-562 leukemia) was 1.45 µM, the TGI (K-562 leukemia) was 12.8 µM and the GI50 (ACHN renal) was 2.55 µM. It also gave a TGI (ACHN renal) of 10.5 µM, a GI50 (M14 melanoma) of 2.84 µM and a TGI (M14 melanoma) of over 100 µM. It also gave a GI50 (HT29 colon) of 3.07 µM, a TGI (HT29 colon) of 11.6 µM and a GI50 (SK-MEL-2 melanoma) of 1.22 µM. For the same molecule, the TGI (SK-MEL-2 melanoma) was 5.01 µM, the GI50 (DU-145 prostate) was 3.62 µM and the TGI (DU-145 prostate) was 20.8 µM. It also gave a GI50 (A549 NSCLC) of 2.45 µM, a TGI (A549 NSCLC) of 15.6 µM and a GI50 (SF-295 CNS) of 1.66 µM. It also gave a TGI (SF-295 CNS) of 5.75 µM, a GI50 (NCI-H23 lung) of 1.75 µM and a TGI (NCI-H23 lung) of 10.6 µM. For the same molecule, the GI50 (MOLT-4 leukemia) was 2.16 µM, the TGI (MOLT-4 leukemia) was 9.92 µM and the GI50 (SK-MEL-5 melanoma) was 0.821 µM. The TGI (SK-MEL-5 melanoma) was 3.16 µM, the GI50 (A498 renal) was 0.141 µM and the TGI (A498 renal) was 2.86 µM. It also gave a GI50 (SNB-75 CNS) of 1.93 µM, a TGI (SNB-75 CNS) of 8.45 µM and a GI50 (KM12 colon) of 2.75 µM. For the same molecule, the TGI (KM12 colon) was 33.4 µM, the GI50 (UACC-62 melanoma) was 0.853 µM and the TGI (UACC-62 melanoma) was 17 µM. For the same molecule, the GI50 (CAKI-1 renal) was 1.56 µM, the TGI (CAKI-1 renal) was 8.72 µM and the GI50 (LOX IMVI melanoma) was 4.54 µM. It also gave a TGI (LOX IMVI melanoma) of 17.7 µM, a GI50 (IGROV1 ovarian) of 3.69 µM and a TGI (IGROV1 ovarian) of 18.3 µM. For the same molecule, the GI50 (HCC-2998 colon) was 3.61 µM, the TGI (HCC-2998 colon) was 19.3 µM and the GI50 (HCT-15 colon) was 2.34 µM. For the same molecule, the TGI (HCT-15 colon) was 45.4 µM, the GI50 (RPMI-8226 leukemia) was 0.75 µM and the TGI (RPMI-8226 leukemia) was 4.48 µM. It also gave a GI50 (EKVX NSCLC) of 2.84 µM, a TGI (EKVX NSCLC) of 15.3 µM and a GI50 (MALME-3M melanoma) of 1.85 µM. The TGI (MALME-3M melanoma) was 13.4 µM, the GI50 (PC-3 prostate) was 1.77 µM and the TGI (PC-3 prostate) was 8.7 µM. For the same molecule, the GI50 (NCI-H460 lung) was 2.02 µM, the TGI (NCI-H460 lung) was 10.2 µM and the GI50 (COLO 205 colon) was 1.82 µM. It also gave a TGI (COLO 205 colon) of 3.6 µM, a GI50 (UO-31 renal) of 2.5 µM and a TGI (UO-31 renal) of 13.4 µM. For the same molecule, the GI50 (SW-620 colon) was 3.16 µM, the TGI (SW-620 colon) was 20.4 µM and the GI50 (HOP-62 NSCLC) was 2.69 µM. The TGI (HOP-62 NSCLC) was 11.2 µM, the GI50 (HL-60(TB) leukemia) was 1.89 µM and the TGI (HL-60(TB) leukemia) was 5.43 µM. It also gave a GI50 (HOP-92 NSCLC) of 0.427 µM, a TGI (HOP-92 NSCLC) of 3.85 µM and a GI50 (SF-539 CNS) of 3.26 µM. The TGI (SF-539 CNS) was 12.8 µM, the GI50 (CCRF-CEM leukemia) was 1.21 µM and the TGI (CCRF-CEM leukemia) was 9.31 µM. For the same molecule, the GI50 (SK-MEL-28 melanoma) was 3.35 µM, the TGI (SK-MEL-28 melanoma) was 77.2 µM and the GI50 (T-47D breast) was 1.63 µM. For the same molecule, the TGI (T-47D breast) was over 100 µM, the GI50 (SF-268 CNS) was 2.37 µM and the TGI (SF-268 CNS) was 25.9 µM. It also gave a GI50 (MDA-MB-435) of 2.55 µM, a TGI (MDA-MB-435) of over 100 µM and a GI50 (MCF7 breast) of 2.11 µM. The TGI (MCF7 breast) was 11.4 µM, the GI50 (HCT-116 colon) was 2.16 µM and the TGI (HCT-116 colon) was 11.5 µM. It also gave a GI50 (NCI/ADR-RES ovarian) of 2.85 µM, a TGI (NCI/ADR-RES ovarian) of 12.1 µM and a GI50 (OVCAR-4 ovarian) of 2.39 µM. For the same molecule, the TGI (OVCAR-4 ovarian) was 21.8 µM, the GI50 (OVCAR-8 ovarian) was 2.61 µM and the TGI (OVCAR-8 ovarian) was 63.8 µM. The GI50 (UACC-257 melanoma) was 1.54 µM, the TGI (UACC-257 melanoma) was 8.69 µM and the GI50 (OVCAR-3 ovarian) was 2.4 µM. It also gave a TGI (OVCAR-3 ovarian) of 15.6 µM, a GI50 (OVCAR-5 ovarian) of 3.52 µM and a TGI (OVCAR-5 ovarian) of 17.2 µM.
